Results as given in US20220009920A1 (GB005, Inc., priority 2020, published 2022).

How the values were obtained:
Assay in all cases: Large panel kinase profiling
Type in all cases: biochemical
Settings in all cases: 1 μM test article, 1 mM ATP
[1] = molecular target: FGFR4 (Homo sapiens, UniProt P22455)
Outline: (§1)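 With ATP fixed at 1 mM, each kinase was exposed to 1 μM compound in a PhosphoSens CSox-Sensor reaction. Sealed plates were incubated at 30° C. and read in kinetic mode.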

[2] = molecular target: T1, MAPK7/ERK5 (Homo sapiens, UniProt Q13164)
T1 construct: AssayQuant Technologies, Inc. (service provider)
T1 sequence (Q13164 whole entry): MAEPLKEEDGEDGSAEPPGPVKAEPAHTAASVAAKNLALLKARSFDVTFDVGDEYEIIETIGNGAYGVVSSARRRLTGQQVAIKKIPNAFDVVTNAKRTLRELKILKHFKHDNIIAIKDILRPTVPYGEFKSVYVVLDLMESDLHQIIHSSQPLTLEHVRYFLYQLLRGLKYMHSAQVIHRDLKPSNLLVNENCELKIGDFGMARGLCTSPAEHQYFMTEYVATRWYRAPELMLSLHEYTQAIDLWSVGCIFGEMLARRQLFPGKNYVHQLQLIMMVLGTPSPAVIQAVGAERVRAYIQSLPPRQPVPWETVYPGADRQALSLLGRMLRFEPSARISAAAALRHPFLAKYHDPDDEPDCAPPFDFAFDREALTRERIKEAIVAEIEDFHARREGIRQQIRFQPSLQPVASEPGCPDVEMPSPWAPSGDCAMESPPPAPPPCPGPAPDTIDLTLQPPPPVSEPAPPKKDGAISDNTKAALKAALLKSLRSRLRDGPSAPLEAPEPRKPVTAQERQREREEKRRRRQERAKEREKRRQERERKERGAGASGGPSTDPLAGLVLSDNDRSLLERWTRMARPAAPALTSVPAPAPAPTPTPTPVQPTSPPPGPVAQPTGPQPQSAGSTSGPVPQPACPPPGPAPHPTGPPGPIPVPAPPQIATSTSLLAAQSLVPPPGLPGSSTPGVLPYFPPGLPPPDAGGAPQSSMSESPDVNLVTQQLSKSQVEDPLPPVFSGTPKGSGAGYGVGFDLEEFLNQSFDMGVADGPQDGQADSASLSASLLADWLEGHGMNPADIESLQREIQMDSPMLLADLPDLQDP
Outline: as §1

[3] = molecular target: T2, NTRK2/TRKB (Homo sapiens, UniProt Q16620)
T2 construct: AssayQuant Technologies, Inc. (assay service)
T2 sequence (Q16620 32-822): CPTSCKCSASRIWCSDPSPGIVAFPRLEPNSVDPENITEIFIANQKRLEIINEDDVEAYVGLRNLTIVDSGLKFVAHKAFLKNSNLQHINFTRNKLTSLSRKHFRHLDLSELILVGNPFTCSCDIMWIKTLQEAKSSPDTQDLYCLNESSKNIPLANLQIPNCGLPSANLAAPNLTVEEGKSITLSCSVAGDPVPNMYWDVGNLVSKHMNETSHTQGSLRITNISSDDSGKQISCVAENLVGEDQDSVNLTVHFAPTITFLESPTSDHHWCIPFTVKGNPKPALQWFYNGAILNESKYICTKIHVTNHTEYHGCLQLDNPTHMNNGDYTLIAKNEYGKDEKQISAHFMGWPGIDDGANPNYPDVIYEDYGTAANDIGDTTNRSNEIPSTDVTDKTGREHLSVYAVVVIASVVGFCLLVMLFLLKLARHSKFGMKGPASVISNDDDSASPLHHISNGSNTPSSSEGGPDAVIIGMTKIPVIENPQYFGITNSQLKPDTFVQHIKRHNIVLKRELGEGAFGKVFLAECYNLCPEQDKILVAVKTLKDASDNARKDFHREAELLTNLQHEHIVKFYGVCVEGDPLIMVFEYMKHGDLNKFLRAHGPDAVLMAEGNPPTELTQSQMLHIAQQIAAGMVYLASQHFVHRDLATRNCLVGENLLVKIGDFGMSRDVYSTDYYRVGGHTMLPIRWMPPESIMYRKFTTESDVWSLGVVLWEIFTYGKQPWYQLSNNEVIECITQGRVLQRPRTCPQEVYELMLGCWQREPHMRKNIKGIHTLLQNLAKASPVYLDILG
Outline: as §1

[4] = molecular target: PIM3 (Homo sapiens, UniProt Q86V86)
Outline: as §1

[5] = molecular target: T3, PRKCE/PKCE (Homo sapiens, UniProt Q02156)
T3 sequence (Q02156 1-737): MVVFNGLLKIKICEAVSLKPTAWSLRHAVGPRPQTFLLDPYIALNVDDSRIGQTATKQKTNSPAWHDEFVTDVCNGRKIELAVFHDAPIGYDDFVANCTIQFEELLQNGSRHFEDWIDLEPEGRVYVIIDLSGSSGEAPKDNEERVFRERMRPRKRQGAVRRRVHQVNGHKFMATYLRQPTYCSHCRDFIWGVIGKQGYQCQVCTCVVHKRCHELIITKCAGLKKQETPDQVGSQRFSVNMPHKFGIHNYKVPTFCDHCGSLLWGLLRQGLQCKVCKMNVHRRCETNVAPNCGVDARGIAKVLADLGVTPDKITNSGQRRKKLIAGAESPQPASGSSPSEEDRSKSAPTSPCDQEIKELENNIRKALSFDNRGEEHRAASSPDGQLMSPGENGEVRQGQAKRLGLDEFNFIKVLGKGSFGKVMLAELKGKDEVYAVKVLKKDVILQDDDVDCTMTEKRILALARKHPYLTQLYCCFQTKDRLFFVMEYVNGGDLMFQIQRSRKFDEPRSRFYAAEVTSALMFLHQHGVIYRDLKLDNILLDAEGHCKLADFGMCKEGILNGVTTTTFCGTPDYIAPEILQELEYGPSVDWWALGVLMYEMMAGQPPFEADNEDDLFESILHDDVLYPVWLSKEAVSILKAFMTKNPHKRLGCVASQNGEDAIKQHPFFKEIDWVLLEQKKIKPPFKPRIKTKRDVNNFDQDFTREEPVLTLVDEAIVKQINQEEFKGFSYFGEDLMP
Outline: as §1

[6] = molecular target: RIPK2 (Homo sapiens, UniProt O43353)
Chain of RIPK2 (O43353 whole entry, species assumed): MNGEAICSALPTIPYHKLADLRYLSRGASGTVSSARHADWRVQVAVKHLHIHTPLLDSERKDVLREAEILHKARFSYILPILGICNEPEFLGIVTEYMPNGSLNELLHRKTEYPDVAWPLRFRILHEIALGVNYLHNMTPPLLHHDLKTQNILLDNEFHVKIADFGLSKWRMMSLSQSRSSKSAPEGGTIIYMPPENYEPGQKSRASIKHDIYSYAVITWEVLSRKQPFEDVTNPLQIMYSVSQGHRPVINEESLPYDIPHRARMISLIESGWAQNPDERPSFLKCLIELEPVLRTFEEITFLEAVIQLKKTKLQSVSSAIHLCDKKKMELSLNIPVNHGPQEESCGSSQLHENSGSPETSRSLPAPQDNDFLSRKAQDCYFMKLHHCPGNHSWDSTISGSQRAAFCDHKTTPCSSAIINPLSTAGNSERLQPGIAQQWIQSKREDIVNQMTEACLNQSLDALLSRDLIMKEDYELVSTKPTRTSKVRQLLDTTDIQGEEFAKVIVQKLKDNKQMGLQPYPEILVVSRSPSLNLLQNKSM
Outline: as §1

[7] = molecular target: T4, STK11/LKB1 (Homo sapiens, UniProt Q15831)
T4 construct: AssayQuant Technologies, Inc. (contract assay)
T4 sequence (Q15831 1-433): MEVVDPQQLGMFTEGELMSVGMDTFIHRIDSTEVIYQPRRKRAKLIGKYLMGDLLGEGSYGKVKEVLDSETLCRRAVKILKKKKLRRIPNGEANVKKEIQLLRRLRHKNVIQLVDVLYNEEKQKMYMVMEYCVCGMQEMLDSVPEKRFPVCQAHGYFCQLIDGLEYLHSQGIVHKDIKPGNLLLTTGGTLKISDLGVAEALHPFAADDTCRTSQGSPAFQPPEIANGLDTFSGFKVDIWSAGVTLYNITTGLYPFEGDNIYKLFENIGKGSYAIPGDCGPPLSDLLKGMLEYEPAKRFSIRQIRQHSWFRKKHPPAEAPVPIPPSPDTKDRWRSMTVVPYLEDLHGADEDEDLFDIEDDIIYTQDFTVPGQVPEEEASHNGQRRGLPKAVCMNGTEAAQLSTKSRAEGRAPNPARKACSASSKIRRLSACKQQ
T4 sequence (Q7RTN6 1-431 partner): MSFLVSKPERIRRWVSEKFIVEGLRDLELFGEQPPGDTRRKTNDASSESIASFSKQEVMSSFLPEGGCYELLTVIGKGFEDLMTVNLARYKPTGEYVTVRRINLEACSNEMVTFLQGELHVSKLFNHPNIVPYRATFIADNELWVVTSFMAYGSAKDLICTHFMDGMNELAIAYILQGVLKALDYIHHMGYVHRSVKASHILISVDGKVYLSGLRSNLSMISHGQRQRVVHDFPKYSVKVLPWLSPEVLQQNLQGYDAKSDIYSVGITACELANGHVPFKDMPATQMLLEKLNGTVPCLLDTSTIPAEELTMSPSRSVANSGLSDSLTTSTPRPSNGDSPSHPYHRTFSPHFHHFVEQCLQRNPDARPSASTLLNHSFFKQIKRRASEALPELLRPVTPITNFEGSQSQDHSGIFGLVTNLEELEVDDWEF
T4 sequence (Q9Y376 1-341 partner): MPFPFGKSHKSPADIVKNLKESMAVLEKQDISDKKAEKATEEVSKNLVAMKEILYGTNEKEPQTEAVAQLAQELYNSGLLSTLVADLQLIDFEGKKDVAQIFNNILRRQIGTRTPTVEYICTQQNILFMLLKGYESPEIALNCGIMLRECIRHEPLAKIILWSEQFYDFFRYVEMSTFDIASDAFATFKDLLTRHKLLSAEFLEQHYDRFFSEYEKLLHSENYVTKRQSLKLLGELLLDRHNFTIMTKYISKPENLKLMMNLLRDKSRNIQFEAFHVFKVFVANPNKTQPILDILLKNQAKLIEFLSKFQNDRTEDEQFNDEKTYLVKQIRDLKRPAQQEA
Outline: as §1

[8] = molecular target: T5, TNK2/ACK (Homo sapiens, UniProt Q07912)
T5 construct: AssayQuant Technologies, Inc. (contract laboratory that ran the panel)
T5 sequence (Q07912 whole entry): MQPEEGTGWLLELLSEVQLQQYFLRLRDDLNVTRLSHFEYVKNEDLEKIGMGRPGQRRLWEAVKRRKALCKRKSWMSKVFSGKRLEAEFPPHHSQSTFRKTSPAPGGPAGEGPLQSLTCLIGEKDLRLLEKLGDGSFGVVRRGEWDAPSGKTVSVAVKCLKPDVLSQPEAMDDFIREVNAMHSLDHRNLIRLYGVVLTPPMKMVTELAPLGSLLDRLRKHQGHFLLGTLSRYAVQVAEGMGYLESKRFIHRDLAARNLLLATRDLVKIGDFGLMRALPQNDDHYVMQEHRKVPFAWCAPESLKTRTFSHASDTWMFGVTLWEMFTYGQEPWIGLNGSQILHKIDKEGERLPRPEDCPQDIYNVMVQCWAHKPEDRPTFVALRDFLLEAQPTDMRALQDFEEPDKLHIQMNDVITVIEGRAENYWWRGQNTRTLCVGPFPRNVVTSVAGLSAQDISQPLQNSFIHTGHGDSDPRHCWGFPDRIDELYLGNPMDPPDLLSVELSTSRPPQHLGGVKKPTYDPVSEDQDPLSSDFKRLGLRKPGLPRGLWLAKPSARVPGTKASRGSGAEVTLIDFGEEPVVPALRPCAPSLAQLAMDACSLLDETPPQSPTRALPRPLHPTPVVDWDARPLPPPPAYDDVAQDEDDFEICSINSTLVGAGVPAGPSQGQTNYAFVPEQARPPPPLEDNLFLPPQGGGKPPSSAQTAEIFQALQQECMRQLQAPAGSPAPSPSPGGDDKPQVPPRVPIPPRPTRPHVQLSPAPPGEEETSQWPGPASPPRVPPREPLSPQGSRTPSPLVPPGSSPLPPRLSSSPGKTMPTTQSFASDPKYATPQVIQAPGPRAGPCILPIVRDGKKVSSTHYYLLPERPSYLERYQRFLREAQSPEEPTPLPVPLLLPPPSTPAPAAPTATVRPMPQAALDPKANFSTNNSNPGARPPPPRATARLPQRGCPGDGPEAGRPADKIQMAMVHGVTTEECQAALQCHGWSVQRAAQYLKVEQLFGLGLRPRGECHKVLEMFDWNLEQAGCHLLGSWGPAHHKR
Outline: as §1

Chain of FGFR4 (P22455 22-802, species assumed): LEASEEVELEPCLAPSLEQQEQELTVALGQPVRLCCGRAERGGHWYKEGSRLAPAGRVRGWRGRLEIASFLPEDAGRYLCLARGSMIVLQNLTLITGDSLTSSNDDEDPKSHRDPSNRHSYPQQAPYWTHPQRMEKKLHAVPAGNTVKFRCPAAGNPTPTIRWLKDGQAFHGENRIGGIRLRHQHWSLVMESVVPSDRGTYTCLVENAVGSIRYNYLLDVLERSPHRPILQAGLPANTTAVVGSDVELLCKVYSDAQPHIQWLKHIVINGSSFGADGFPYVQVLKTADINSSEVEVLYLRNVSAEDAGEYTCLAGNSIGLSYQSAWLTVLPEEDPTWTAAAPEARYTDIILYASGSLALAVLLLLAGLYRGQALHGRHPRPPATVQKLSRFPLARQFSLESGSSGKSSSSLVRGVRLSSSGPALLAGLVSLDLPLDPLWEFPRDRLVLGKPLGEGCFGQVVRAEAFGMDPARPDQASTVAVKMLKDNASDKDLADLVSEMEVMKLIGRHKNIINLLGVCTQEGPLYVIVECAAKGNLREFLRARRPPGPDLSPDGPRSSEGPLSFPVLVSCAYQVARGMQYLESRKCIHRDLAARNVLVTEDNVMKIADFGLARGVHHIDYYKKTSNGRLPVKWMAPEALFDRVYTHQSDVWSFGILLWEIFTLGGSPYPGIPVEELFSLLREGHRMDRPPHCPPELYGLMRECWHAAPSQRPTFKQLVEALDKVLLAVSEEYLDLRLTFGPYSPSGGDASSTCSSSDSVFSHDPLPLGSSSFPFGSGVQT

## C=CC(=O)N1CCCC(c2c(F)cc(C(N)=O)c3[nH]c4c(c23)CCCCC4)C1 (single isomer, unassigned) [Compound 5-6]
[1]
  inhibition at 1 µM: 24.5%
[2]
  inhibition at 1 µM: -0.7%
[3]
  inhibition at 1 µM: -20.9%
[4]
  inhibition at 1 µM: -14.1%
[5]
  inhibition at 1 µM: -3.2%
[6]
  inhibition at 1 µM: 7.1%
[7]
  inhibition at 1 µM: 23.5%
[8]
  inhibition at 1 µM: -8.3%

## C=CC(=O)N1CCC[C@@H](c2c(F)cc(C(N)=O)c3[nH]c4c(c23)CCC4)C1 [Compound 10-2, (S)-8-(1-acryloylpiperidin-3-yl)-7-fluoro-1,2,3,4-tetrahydrocyclo-penta[b]indole-5-carboxamide]
[1]
  inhibition at 1 µM: 9.8%
[2]
  inhibition at 1 µM: -4.3%
[3]
  inhibition at 1 µM: 19.7%
[4]
  inhibition at 1 µM: -16.8%
[5]
  inhibition at 1 µM: -3.5%
[6]
  inhibition at 1 µM: -45.4%
[7]
  inhibition at 1 µM: -6%
[8]
  inhibition at 1 µM: 2%

## C=CC(=O)N1CCC[C@@H](c2c(F)cc(C(N)=O)c3[nH]c4c(c23)CC2(CC4)CC2)C1 [Compound 6-2, (S)-5-(1-acryloylpiperidin-3-yl)-6-fluoro-1,2,4,9-tetrahydrospiro[carbazole-3,1′-cyclopropane]-8-carboxamide]
[1]
  inhibition at 1 µM: 4.9%
[2]
  inhibition at 1 µM: 9.4%
[3]
  inhibition at 1 µM: 13.1%
[4]
  inhibition at 1 µM: -56.4%
[5]
  inhibition at 1 µM: 0%
[6]
  inhibition at 1 µM: -31.3%
[7]
  inhibition at 1 µM: -4.3%
[8]
  inhibition at 1 µM: 13.4%
